According to ChEMBL document CHEMBL5441451, “ASAP - In vitro cytotoxicity” (2024):
Values joined by “and” are separate entries in the source; they are usually repeats but may differ in a detail not shown here. Equal entries are not always repeated.

Tests used:
[1] = (§1) Functional metabolic assay to measure dose dependent changes in cell viability from drug treatment in iPSC-Pneumocyte cells. The cells are seeded then incubated in MTT (3-[4,5-dimethylthiazol-2-yl]-2,5- diphenyltetrazolium bromide) labeling reagent and SDS. Absorbance is measured at 560 and 750 nm and analyzed by Gen5 software. The assay has been performed by Icahn School of Medicine at Mount Sinai.; assay type: toxicity, cell-based; details: human
[2] = as §1, with “in HeLa-ACE2” for “in iPSC-Pneumocyte”, “cells. Hela-ACE2” for “cells. The”, “seeded prior to drug treatment,” for “seeded”, “bromide) labelling” for “bromide) labeling”; assay type: toxicity, cell-based; details: human

SMILES	CC50 ([1]; iPSC-Pneumocyte cells) [µM]	CC10 ([1]; pneumocyte)	CC50 ([2]; HeLa-ACE2 cells) [µM]	CC10 ([2]; hela-ace2)	CC50 ([1]; pneumocyte)	CC50 ([2]; hela-ace2) [µM]
Cn1ncc(-c2cc3c(N[C@@H](c4ccc5c(c4)OCCO5)C(C)(C)C)ncnc3[nH]2)c1C#N	48.6	> 50 µM	> 20	> 20 µM		
CNCc1cc(-c2cc3c(N[C@@H](c4ccc5c(c4)S(=O)(=O)NCC5)C(C)C)ncnc3[nH]2)co1	> 50	> 50 µM	> 20	> 20 µM		
CC(C)[C@@H](Nc1ncnc2[nH]c(-c3cnn(C)c3C#N)cc12)c1ccc2c(c1)OCCO2		24.479 µM and > 50 µM	> 50	> 50 µM	18.1 µM and > 50 µM	
Cc1ncc(-c2cc3c(N[C@@H](c4ccc5c(c4)OCCO5)C(C)C)ncnc3[nH]2)cn1	> 50	> 50 µM	> 20	> 20 µM		
CC(C)[C@@H](Nc1ncnc2[nH]c(C(=O)N[C@H]3CCN(C)C3)cc12)c1ccc2c(c1)S(=O)(=O)CCC2	> 50	> 50 µM	> 20	> 20 µM		
CC(C)[C@H](Nc1ncnc2[nH]c(-c3cnn(CC(N)=O)c3)cc12)c1ccc2c(c1)S(=O)(=O)CCC2	> 50	> 50 µM	> 20	> 20 µM		
CC(C)[C@@H](Nc1ncnc2[nH]c(-c3cnn(CC(N)=O)c3)cc12)c1ccc2c(n1)OCCO2	> 50	> 50 µM				
CC(C)[C@@H](Nc1ncnc2[nH]ccc12)c1ccc2c(c1)NC(=O)CO2	> 50	> 50 µM	> 50	> 50 µM		
CC(C)[C@@H](Nc1ncnc2[nH]ccc12)c1ccc2c(c1)S(=O)(=O)CCC2	> 50	> 50 µM		> 50 µM and > 20 µM		> 50
CNC(=O)Cn1cc(-c2cc3c(N[C@H](c4ccc5c(c4)S(=O)(=O)CCC5)C(C)C)ncnc3[nH]2)cn1	> 50	> 50 µM	> 20	> 20 µM		
CC(C)(C)[C@@H](Nc1ncnc2[nH]c(-c3cnn(CC(N)=O)c3)cc12)c1ccc2c(n1)OCCO2	> 50	> 50 µM	> 20	> 20 µM		
CC(C)[C@@H](Nc1ncnc2[nH]c(-c3cnn(CC(N)=O)c3)cc12)c1ccc2c(c1)OCCO2	> 50	> 50 µM	> 50	> 50 µM		
CC(C)[C@@H](Nc1ncnc2[nH]c(-c3cnn(C)n3)cc12)c1ccc2c(c1)OCCO2	< 0.206	< 0.206 µM	> 20	> 20 µM		
CC(C)[C@@H](Nc1ncnc2[nH]c(-c3cnn(C)c3C#N)cc12)c1ccc2c(c1)S(=O)(=O)CCC2	> 50	> 50 µM	> 20	> 20 µM		
CCNC(=O)c1cc2c(N[C@@H](c3ccc4c(c3)OCCO4)C(C)C)ncnc2[nH]1	< 0.206	1.29 µM				
CNC(=O)c1cc2c(N[C@@H](c3ccc4c(c3)OCCO4)C(C)C)ncnc2[nH]1	> 50	> 50 µM	> 50	> 50 µM		
C[C@@H](C(=O)O)[C@H](NC(=O)c1ncnc2[nH]ccc12)c1ccc(Br)cc1			> 20	> 20 µM		
CC(C)[C@@H](Nc1ncnc2[nH]c(-c3cnn(C)c3)cc12)c1ccc2c(c1)S(=O)(=O)CCC2	> 50	> 50 µM	> 20	> 20 µM		
CC(C)[C@@H](Nc1ncnc2[nH]c(C(N)=O)cc12)c1ccc2c(c1)OCCO2	> 50	> 50 µM	< 0.082	< 0.082 µM		
